Reference: patent publication US20240076297A1, “ADENOSINE A2A AND A2B RECEPTOR DUAL ANTAGONISTS FOR IMMUNO-ONCOLOGY” (Merck Sharp & Dohme LLC, priority 2020, published 2024)

How the values were obtained:
[1] = target: T1, human A2A adenosine receptor (Homo sapiens (Human), UniProt P29274); assay: A2A binding affinity using SPA, Method (B); details: [3H] SCH58261, A2A receptor-expressing membranes
From the text: (§1) Method (A) describes the procedure used to measure A2A binding affinity using radioligand binding. Method (B) describes the procedure used to measure A2A binding affinity using SPA technology. The method used to measure A2B binding affinity is also described below. The method used to determine the A2A IC50 value reported for each compound in the table is indicated next to the reported value. The A2B IC50 value measured using the A2B binding affinity assay is shown in the table next to the compound under the corresponding A2A value.
The A2A receptor affinity binding assay measured the amount of binding of a tritiated ligand with high affinity for the A2A adenosine receptor to membranes made from HEK293 or CHO cells recombinantly expressing the human A2A adenosine receptor, in the presence of varying concentrations of a compound of the invention. The data were generated using either filtration binding or a homogenous scintillation proximity assay (SPA).
Method (B): Measurement of A2A Binding Affinity Using SPA
Binding affinity using SPA was conducted as follows. Test compounds (50 nL) were dispensed into individual wells of a 384-well OptiPlate™ well (Perkin Elmer) by Echo® acoustic liquid transfer (Labcyte). 20 μL of 1.25 nM [^3H] SCH58261 ((7-(2-phenylethyl)-5-amino-2-(2-furyl)-pyrazolo-[4,3-e]-1,2,4-triazolo[1,5-c]pyrimidine)) in DPBS assay buffer (Dulbecco's phosphate buffered saline without calcium and magnesium, ThermoFisher Scientific, Cat. No. A1285601) supplemented with 10 mM MgCl2 was added. A2A receptor-expressing membranes were incubated with 20 μg/mL adenosine deaminase (Roche, Cat. No. 10 102 105 001) for 15 min at room temperature. The receptor-expressing membranes were then combined with wheat germ agglutinin-coated yttrium silicate SPA beads (GE Healthcare, Cat. No. RPNQ0023) in a ratio of 1:1000 (w/w) and incubated for 30 min at room temperature. 30 μL of the membrane/bead mixture (0.25 μg and 25 μg per well respectively) were added to the 384-well OptiPlate™ well. To define total and non-specific binding, wells containing 1% DMSO or 1 μM CGS15943 (Tocris Bioscience, Cat. No. 1699) respectively were also included in the experiment. The plate was incubated for 1 h at room temperature with agitation. The assay plate was then incubated for an h to allow the beads to settle before data were collected using a TopCount® (Perkin Elmer) scintillation counter. After normalization to total and non-specific binding, the percent effect at each compound concentration was calculated. The plot of percent effect versus the log of compound concentration was analyzed electronically using a 4-parameter logistic fit based on the Levenberg-Marquardt algorithm to generate IC50 values.

[2] = target: human A2B adenosine receptor (Homo sapiens (Human), UniProt P29275); assay: A2B binding affinity, radioligand filtration binding assay; details: HEK293 membranes expressing human A2B, tritiated proprietary antagonist
From the text: as §1
Measurement of A2B Binding Affinity
The reported affinity of the compounds of the invention for the human A2B adenosine receptor was determined experimentally using a radioligand filtration binding assay. This assay measures the amount of binding of a tritiated proprietary A2B receptor antagonist, in the presence and absence of a compound of the invention, to membranes made from HEK293 cells recombinantly expressing the human A2B adenosine receptor (Perkin Elmer, Cat. No. ES-013-C).
148 μL (135 μg/mL) membranes and 2 μL test compounds were transferred to individual wells of a 96-well polypropylene assay plate and incubated for 15 to 30 min at room temperature with agitation. Tritiated radioligand was diluted to a concentration of 14 nM in assay buffer (phosphate buffered saline without Magnesium and Calcium, pH 7.4; GE Healthcare Life Sciences, Cat. No. SH30256.01) and then 50 μL of the solution were transferred to each well of the assay plate. To define total and non-specific binding, wells containing 1% DMSO and 20 μM N-ethylcarboxamidoadenosine (Tocris Bioscience, Cat. No. 1691) respectively, were also included. The wells of the assay plate were incubated at room temperature for 60 min with agitation, then filtered using a FilterMate Harvester® (Perkin Elmer) or similar equipment through a UniFilter-96@ PEI coated plate (Perkin Elmer Cat. No. 6005274 or 6005277). Filtering was achieved by aspirating the contents of the assay plate for 5 sec, then washing and aspirating the contents three times with ice-cooled wash buffer (assay buffer supplemented with 0.0025% Brij58) and allowing the vacuum manifold to dry the plate for 30 sec. The filter plate was incubated for at least 1 h at 55° C. and allowed to dry. The bottom of the filter plate was then sealed with backing tape. 40 μL Ultima Gold™ (Perkin Elmer, Cat. No. 6013329) was added to each well of the filter plate and the top of the plate was sealed with TopSeal-A PLUS® clear plate seal (Perkin Elmer, Cat. No. 6050185). The plates were then incubated for at least 20 min, and then the amount of radioactivity remaining in each well was determined using a TopCount® (Perkin Elmer) scintillation counter. After normalization to total and non-specific binding, the percent effect at each compound concentration was calculated. The plot of percent effect versus the log of compound concentration was analyzed electronically using a 4-parameter logistic fit based on the Levenberg-Marquardt algorithm to generate IC50 values.

[3] = target: T1, human A2A adenosine receptor; assay: A2A binding affinity using radioligand binding, Method (A); details: Method (A): filtration radioligand binding, [3H] SCH58261, membranes expressing human A2A
Method in brief: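 Filtration binding used HEK293 or CHO membranes (5 μg/mL) preincubated with compound for 15–30 min at RT. [3H]SCH58261 (4 nM working solution) was added in Tris pH 7.4/10 mM MgCl2/0.005% Tween20 for 60 min at RT, with 1 μM ZM241385 defining nonspecific binding. Scintillation counts gave IC50 via 4-parameter logistic fit.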

Chain of human A2B adenosine receptor (P29275 whole entry): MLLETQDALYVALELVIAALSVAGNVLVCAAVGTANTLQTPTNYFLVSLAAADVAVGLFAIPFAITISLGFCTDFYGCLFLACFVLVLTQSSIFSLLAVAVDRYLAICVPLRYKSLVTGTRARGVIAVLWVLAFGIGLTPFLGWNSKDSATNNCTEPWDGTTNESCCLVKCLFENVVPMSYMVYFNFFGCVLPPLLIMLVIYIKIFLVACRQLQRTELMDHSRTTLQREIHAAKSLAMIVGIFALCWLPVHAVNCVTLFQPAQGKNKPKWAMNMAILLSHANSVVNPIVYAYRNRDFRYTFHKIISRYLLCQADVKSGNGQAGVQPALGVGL
T1 sequence (P29274 whole entry): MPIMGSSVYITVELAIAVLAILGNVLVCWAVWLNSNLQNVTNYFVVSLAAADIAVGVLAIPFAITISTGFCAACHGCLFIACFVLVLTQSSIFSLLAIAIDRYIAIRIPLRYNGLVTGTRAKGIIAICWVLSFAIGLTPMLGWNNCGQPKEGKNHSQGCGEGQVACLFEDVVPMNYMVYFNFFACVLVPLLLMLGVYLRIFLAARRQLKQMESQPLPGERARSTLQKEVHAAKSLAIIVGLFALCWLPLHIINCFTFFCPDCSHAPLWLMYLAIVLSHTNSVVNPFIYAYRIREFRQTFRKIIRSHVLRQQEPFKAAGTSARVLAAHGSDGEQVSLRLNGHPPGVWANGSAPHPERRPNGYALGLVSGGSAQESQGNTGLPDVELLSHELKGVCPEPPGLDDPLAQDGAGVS

Compound | IC50 [1] | IC50 ([2]; value given with marker (B)) | IC50 [3] | IC50 ([2]; value given with marker (A))
COc1cccc2c1nc(N)n1nc(COC(C)C)nc21 [Example 4.13, 2-(isopropoxymethyl)-7-methoxy-[1,2,4]triazolo[1,5-c]quinazolin-5-amine] | 5.7 nM |  |  | 
COc1cccc2c1nc(N)n1nc(COCC(F)(F)F)nc21 [Example 4.11, 7-methoxy-2-((2,2,2-trifluoroethoxy)methyl)-[1,2,4]triazolo[1,5-c]quinazolin-5-amine] | 3.5 nM |  |  | 
COc1cccc2c1nc(N)n1nc(COCc3ccc(F)cc3)nc21 [Example 4.4, 2-(((4-fluorobenzyl)oxy)methyl)-7-methoxy-[1,2,4]triazolo[1,5-c]quinazolin-5-amine] | 4.7 nM |  |  | 
COc1cccc2c1nc(N)n1nc(COCc3ccsc3)nc21 [Example 4.3, 7-methoxy-2-((thiophen-3-ylmethoxy)methyl)-[1,2,4]triazolo[1,5-c]quinazolin-5-amine] | 2.7 nM |  |  | 
COc1cccc2c1nc(N)n1nc(COCc3c(C)ccnc3C)nc21 [Example 4.5, 2-(((2,4-dimethylpyridin-3-yl)methoxy)methyl)-7-methoxy-[1,2,4]triazolo[1,5-c]quinazolin-5-amine] | 8.7 nM |  |  | 
CCOCc1nc2c3cccc(OC)c3nc(N)n2n1 [Example 4.2, 2-(ethoxymethyl)-7-methoxy-[1,2,4]triazolo[1,5-c]quinazolin-5-amine] | 8.7 nM |  |  | 
COc1cccc2c1nc(N)n1nc(COCCF)nc21 [Example 4.12, 2-((2-fluoroethoxy)methyl)-7-methoxy-[1,2,4]triazolo[1,5-c]quinazolin-5-amine] | 7.2 nM |  |  | 
COc1cccc2c1nc(N)n1nc(COCC(F)F)nc21 [Example 4.10, 2-((2,2-difluoroethoxy)methyl)-7-methoxy-[1,2,4]triazolo[1,5-c]quinazolin-5-amine] | 4.4 nM |  |  | 
COc1cccc2c1nc(N)n1nc(CO[C@H](C)c3ccc(F)cc3)nc21 [Example 4.6, (R)-2-((1-(4-fluorophenyl)ethoxy)methyl)-7-methoxy-[1,2,4]triazolo[1,5-c]quinazolin-5-amine] | 8.3 nM |  |  | 
CCC#CCOCc1nc2c3cccc(OC)c3nc(N)n2n1 [Example 4.9, 7-methoxy-2-((pent-2-yn-1-yloxy)methyl)-[1,2,4]triazolo[1,5-c]quinazolin-5-amine] | 6.1 nM |  |  | 
COc1cccc2c1nc(N)n1nc(CSCc3ccc(F)cc3)nc21 [Example 1.3, 2-(((4-fluorobenzyl)thio)methyl)-7-methoxy-[1,2,4]triazolo[1,5-c]quinazolin-5-amine] | 7.3 nM |  |  | 
COc1cccc2c1nc(N)n1nc(CCC3CCc4c(nnn4C4CC(F)(F)C4)C3)nc21 (single isomer, unassigned) [Example 5.3B, (R or S)-2-(2-(1-(3,3-difluorocyclobutyl)-4,5,6,7-tetrahydro-1H-benzo[d][1,2,3]triazol-5-yl)ethyl)-7-methoxy-[1,2,4]triazolo-[1,5-c]quinazolin-5-amine] |  |  | 0.9 nM | 3.1 nM
COc1cccc2c1nc(N)n1nc(CC3CC3c3ccc(C(C)(C)N)cc3)nc21 (single isomer, unassigned) [Example 8.5B, 2-(((IR,2S or 1S,2R)-2-(4-(2-aminopropan-2-yl)phenyl)cyclopropyl)methyl)-7-methoxy-[1,2,4]triazolo[1,5-c]quinazolin-5-amine] |  |  | 1.3 nM | 3.3 nM
COc1cc(F)cc2c1nc(N)n1nc(CCC3CCc4nn(C(C)C)cc4C3)nc21 (single isomer, unassigned) [Example 5.4A, (S or R)-9-fluoro-2-(2-(2-isopropyl-4,5,6,7-tetrahydro-2H-indazol-5-yl)ethyl)-7-methoxy-[1,2,4]triazolo[1,5-c]quinazolin-5-amine] |  |  | 1.9 nM | 9.4 nM
COc1cccc2c1nc(N)n1nc(COCc3ccc(C(O)(C(F)(F)F)C(F)(F)F)cc3)nc21 [Example 4.1, 2-(4-(((5-amino-7-methoxy-[1,2,4]triazolo[1,5-c]quinazolin-2-yl)methoxy)methyl)phenyl)-1,1,1,3,3,3-hexafluoropropan-2-ol] |  |  | 0.1 nM | 0.6 nM
COc1cc2nc(N)n3nc(CC(C)S(C)(=O)=O)nc3c2cc1F (single isomer, unassigned) [Example 13.2B, (R or S)-9-fluoro-8-methoxy-2-(2-(methylsulfonyl)propyl)-[1,2,4]triazolo[1,5-c]quinazolin-5-amine] |  |  | 8.1 nM | 1050 nM

Other lines, results leading:

IC50 [1] | IC50 ([2]; value given with marker (B)) | IC50 [3] | IC50 ([2]; value given with marker (A)) | Compound
 | 2990 nM | 264 nM |  | COc1cccc2c1nc(N)n1nc([C@@H](C)CO)nc21 [Example 17.3, (R)-2-(5-amino-7-methoxy-[1,2,4]triazolo[1,5-c]quinazolin-2-yl)propan-1-ol]
 |  | 76.9 nM | 894 nM | COc1ccc2c(c1)nc(N)n1nc(CCS(=O)(=O)CC(C)C)nc21 [Example 13.8, 2-(2-(isobutylsulfonyl)ethyl)-8-methoxy-[1,2,4]triazolo-[1,5-c]quinazolin-5-amine]
 |  | 170 nM | 607 nM | COc1ccc2c(c1)nc(N)n1nc(CCS(=O)(=O)c3ccc(F)cc3)nc21 [Example 13.7, 2-(2-((4-fluorophenyl)sulfonyl)ethyl)-8-methoxy-[1,2,4]triazolo[1,5-c]quinazolin-5-amine]
 |  | 246 nM | 1060 nM | CCS(=O)(=O)CCc1nc2c3ccc(OC)cc3nc(N)n2n1 [Example 13.9, 2-(2-(ethylsulfonyl)ethyl)-8-methoxy-[1,2,4]triazolo-[1,5-c]quinazolin-5-amine]
 |  | 165 nM | 1720 nM | CCS(=O)(=O)CCc1nc2c3cc(F)c(OC)cc3nc(N)n2n1 [Example 13.12, 2-(2-(ethylsulfonyl)ethyl)-9-fluoro-8-methoxy-[1,2,4]triazolo[1,5-c]quinazolin-5-amine]
 |  | 107 nM | 1080 nM | COc1cc2nc(N)n3nc(CCS(=O)(=O)CC(C)C)nc3c2cc1F [Example 13.16, 9-fluoro-2-(2-(isobutylsulfonyl)ethyl)-8-methoxy-[1,2,4]triazolo[1,5-c]quinazolin-5-amine]
 | 1070 nM | 145 nM |  | COc1cccc2c1nc(N)n1nc([C@H](C)CO)nc21 [Example 17.4, (S)-2-(5-amino-7-methoxy-[1,2,4]triazolo[1,5-c]quinazolin-2-yl)propan-1-ol]
